Tests used:
Assay type in all cases: binding, sheep
[1] = test system: Polymyxin B derived antibody; experiment: Competitive biochip immunoassay, standard curves with Polymyxin B derived antibody and Colistin-based tracer; settings: for CR (percentage cross-reactivity) / IC50 (standard concentration which produces 50% inhibition of maximal signal): Polymyxin B derived antibody, Colistin-based tracer
Procedure: (§1) The process of developing an immunoassay is well known to the person skilled in the art. Briefly, for a competitive immunoassay in which the target analyte is a non-immunogenic molecule such as a hapten, a general immunoassay development process outlined. Following antibody production, a detecting agent is added to a sample containing the target analyte and the raised antibodies, and the detecting agent and analyte compete for binding to the antibodies. The process may comprise fixing said serum antibodies to a solid state device such as a polystyrene support or a ceramic chip. The antibodies can be polyclonal or monoclonal using standard techniques, but the current invention makes use of polyclonal antibodies. The signal emitted in the immunoassay is proportionate to the quantity of detecting agent bound to the antibodies which in turn is inversely proportionate to the analyte concentration. The signal can be detected or quantified by comparison with a calibrator.
(§2) 175 μl of assay diluent, then 25 μl of Polymyxin diluted in calibrator base was added to the appropriate wells. Biochips spotted with antibody of the invention were incubated for 30 min at 25° C. in a thermo-shaker at 370 rpm. 100 μl Tracer of the invention was added to the appropriate wells. Biochips were incubated for 60 min at 25° C. in a thermo-shaker at 370 rpm. Biochips were washed with TBST (2 quick washes followed by 4 washes at 2 min intervals). Biochips were developed with 250 μl signal: peroxide (1:1) for 2 min in the dark. Biochips were imaged on the Randox Investigator (2×60 sec images). All biochips were manually processed.

Antibody RS2790 = experiment: Competitive biochip immunoassay with Polymyxin B-KLH derived antibody RS2790 and Colistin-HRP tracer
Procedure: as §1, §2

Antibody RS2801 = experiment: Competitive biochip immunoassay with Polymyxin B-KLH derived antibody RS2801 and Colistin-HRP tracer
Procedure: as §1, §2

Antibody RS2830 = experiment: Competitive biochip immunoassay with Polymyxin B-KLH derived antibody RS2830 and Colistin-HRP tracer
Procedure: as §1, §2

[2] = antibody 0.1 mg/ml, Colistin-HRP tracer dilution 1/50K
[3] = antibody 0.1 mg/ml, Colistin-HRP tracer dilution 1/100K
[4] = antibody 0.1 mg/ml, tracer dilution 1/50K
[5] = antibody 0.1 mg/ml, tracer dilution 1/100K
[6] = antibody 0.75 mg/ml, Colistin-HRP tracer dilution 1/50K
[7] = antibody 0.75 mg/ml, Colistin-HRP tracer dilution 1/100K
[8] = antibody 0.75 mg/ml, tracer dilution 1/50K
[9] = antibody 0.75 mg/ml, tracer dilution 1/100K
[10] = antibody 0.1 mg/ml, Colistin-HRP tracer dilution 1/500K
[11] = antibody 0.1 mg/ml, Colistin-HRP tracer dilution 1/1000K
[12] = antibody 0.1 mg/ml, tracer dilution 1/500K
[13] = antibody 0.1 mg/ml, tracer dilution 1/1000K
[14] = antibody 0.75 mg/ml, Colistin-HRP tracer dilution 1/500K
[15] = antibody 0.75 mg/ml, Colistin-HRP tracer dilution 1/1000K
[16] = antibody 0.75 mg/ml, tracer dilution 1/500K
[17] = antibody 0.75 mg/ml, tracer dilution 1/1000K

Substance	CR (percentage cross-reactivity) [1]	IC50 (standard concentration which produces 50% inhibition of maximal signal) [1]	Relative % Cross-reactivity (Antibody RS2790; [2])	Relative % Cross-reactivity (Antibody RS2790; [3])	Relative Binding (IC50) (Antibody RS2790; [4])	Relative Binding (IC50) (Antibody RS2790; [5])	Relative % Cross-reactivity (Antibody RS2790; [6])	Relative % Cross-reactivity (Antibody RS2790; [7])	Relative Binding (IC50) (Antibody RS2790; [8])	Relative Binding (IC50) (Antibody RS2790; [9])	Relative % Cross-reactivity (Antibody RS2801; [10])	Relative % Cross-reactivity (Antibody RS2801; [11])	Relative Binding (IC50) (Antibody RS2801; [12])	Relative Binding (IC50) (Antibody RS2801; [13])	Relative % Cross-reactivity (Antibody RS2801; [14])	Relative % Cross-reactivity (Antibody RS2801; [15])	Relative Binding (IC50) (Antibody RS2801; [16])	Relative Binding (IC50) (Antibody RS2801; [17])	Relative % Cross-reactivity (Antibody RS2830; [10])	Relative % Cross-reactivity (Antibody RS2830; [11])	further results
Polymyxin B	(CR = 100%)	0.931 ng/mL	100%	100%	0.14 ng/mL	0.37 ng/mL	100%	100%	0.14 ng/mL	0.59 ng/mL	100%	100%	0.09 ng/mL	0.12 ng/mL	100%	100%	0.16 ng/mL	0.13 ng/mL	100%	100%	B/Bo ([1]; standard conc 0.078 ng/ml): 86%; B/Bo ([1]; standard conc 0.156 ng/ml): 78%; B/Bo ([1]; standard conc 0.313 ng/ml): 64%; B/Bo ([1]; standard conc 0.625 ng/ml): 56%; B/Bo ([1]; standard conc 1.250 ng/ml): 51%; B/Bo ([1]; standard conc 2.500 ng/ml): 38%; B/Bo ([1]; standard conc 5.000 ng/ml): 27%; B/Bo ([1]; standard conc 10.000 ng/ml): 16%; Relative Binding (IC50) (Antibody RS2830; [12]): 0.15 ng/mL; Relative Binding (IC50) (Antibody RS2830; [13]): 0.17 ng/mL; Relative % Cross-reactivity (Antibody RS2830; [14]): 100%; Relative % Cross-reactivity (Antibody RS2830; [15]): 100%; Relative Binding (IC50) (Antibody RS2830; [16]): 0.17 ng/mL; Relative Binding (IC50) (Antibody RS2830; [17]): 0.22 ng/mL
Colistin	(CR = 80%)	1.191 ng/mL	5%	23%	3.02 ng/mL	1.60 ng/mL	8%	59%	1.72 ng/mL	1.01 ng/mL	20%	15%	0.47 ng/mL	0.78 ng/mL	67%	62%	0.24 ng/mL	0.22 ng/mL	6%	5%	B/Bo ([1]; standard conc 0.391 ng/ml): 71%; B/Bo ([1]; standard conc 0.781 ng/ml): 58%; B/Bo ([1]; standard conc 1.563 ng/ml): 44%; B/Bo ([1]; standard conc 3.125 ng/ml): 33%; B/Bo ([1]; standard conc 6.250 ng/ml): 17%; B/Bo ([1]; standard conc 12.500 ng/ml): 11%; B/Bo ([1]; standard conc 25.000 ng/ml): 9%; B/Bo ([1]; standard conc 50.000 ng/ml): 6%; Relative Binding (IC50) (Antibody RS2830; [12]): 2.54 ng/mL; Relative Binding (IC50) (Antibody RS2830; [13]): 3.62 ng/mL; Relative % Cross-reactivity (Antibody RS2830; [14]): 8%; Relative % Cross-reactivity (Antibody RS2830; [15]): 9%; Relative Binding (IC50) (Antibody RS2830; [16]): 2.16 ng/mL; Relative Binding (IC50) (Antibody RS2830; [17]): 2.47 ng/mL

From patent US10620225B2, “Detection of polymyxins” (Randox Laboratories Limited, priority 2014, dated 2020)
